Laboratory results as given in ChEMBL document CHEMBL4831510, “Novel cannabidiol-carbamate hybrids as selective BuChE inhibitors: Docking-based fragment reassembly for the development of potential therapeutic agents against Alzheimer's disease” (Eur J Med Chem, 2021).
Calls of active or inactive are those of the source. The calls are words filed in the database; no cut-off is given here.

What was measured:
[1] = Antioxidant activity assessed as DPPH radical scavenging activity at 100 uM incubated for 2 hrs by microplate reader method; format: functional
[2] = molecular target: Acetylcholinesterase (Electrophorus electricus) (UniProt O42275); experiment: Inhibition of electric eel AChE using acetylthiocholine iodide as substrate at 20 uM preincubated with enzyme for 20 mins followed by substrate addition and measured after 20 mins by Ellman's method; settings: time 40.0 min
[3] = molecular target: T1, Cholinesterase (Equus caballus, UniProt P81908)
Description: Inhibition of equine serum BuChE using butyrylthiocholine iodide as substrate preincubated with enzyme for 20 mins followed by substrate addition and measured after 20 mins by Ellman's method

[4] = test system: Mus musculus; experiment: Anti-alzheimer activity against oligomerized-amyloid beta (1 to 42) peptide-induced cognitive dysfunction ICR mouse model assessed as reduction in escape latency time at 15 mg/kg, po administered from day 3 to 14 by Morris water maze test; format: functional, organism-based; settings: time 12.0 day
[5] = test system: Mus musculus; experiment: Anti-alzheimer activity against oligomerized-amyloid beta (1 to 42) peptide-induced cognitive dysfunction ICR mouse model assessed as simplification of trajectories to the platform at 15 mg/kg, po administered from day 3 to 14 by Morris water maze test; format: functional, organism-based; settings: time 12.0 day
[6] = test system: Mus musculus; experiment: Anti-alzheimer activity against oligomerized-amyloid beta (1 to 42) peptide-induced cognitive dysfunction ICR mouse model assessed as improvement in alteration performance at 15 mg/kg, po administered from day 3 to 14 by […]; format: functional, organism-based; settings: time 12.0 day
[7] = test system: Mus musculus; experiment: Anti-alzheimer activity against scopolamine-induced cognitive dysfunction mouse model assessed as increase in swimming time in the target quadrant crossing at 10 mg/kg, ip measured after 60 mins by Morris water maze test; format: functional, organism-based
[8] = test system: Mus musculus; experiment: Anti-alzheimer activity against scopolamine-induced cognitive dysfunction mouse model assessed as reduction in escape time latency at 10 mg/kg, ip measured after 60 mins by Morris water maze test; format: functional, organism-based
[9] = Cytotoxicity against human HepG2 cells assessed as cell viability at 50 uM incubated for 24 hrs by MTT assay; format: cell-based; settings: read-out: Activity
[10] = test system: Mus musculus; experiment: Anti-alzheimer activity against scopolamine-induced cognitive dysfunction mouse model assessed as increase in number of platform crossing at 10 mg/kg, ip measured after 60 mins by Morris water maze test; format: functional, organism-based
[11] = organism: Mus musculus; experiment: animal or person; settings: ICR, po, 288 h, read-out: INH
Description: Anti-alzheimer activity against oligomerized-amyloid beta (1 to 42) peptide-induced cognitive dysfunction ICR mouse model assessed as reduction in amyloid beta (1 to 42) peptide level in brain at 15 mg/kg, po administered from day 3 to 14 by ELISA

[12] = molecular target: Acetylcholinesterase (Electrophorus electricus, UniProt O42275); experiment: Inhibition of electric eel AChE using acetylthiocholine iodide as substrate preincubated with enzyme for 20 mins followed by substrate addition and measured after 20 mins by Ellman's method
[13] = molecular target: Cholinesterase (Equus caballus) (UniProt P81908); experiment: Pseudo-irreversible inhibition of equine serum BuChE assessed as overall carbamolyation-rate using butyrylthiocholine iodide as substrate preincubated with enzyme for 60 mins prior to substrate addition; format: cell-free
[14] = molecular target: Cholinesterase (Equus caballus) (UniProt P81908); experiment: Pseudo-irreversible inhibition of equine serum BuChE assessed as carbamolyation-rate using butyrylthiocholine iodide as substrate preincubated with enzyme for 60 mins prior to substrate addition; format: cell-free
[15] = molecular target: Cholinesterase (Equus caballus) (UniProt P81908); experiment: Pseudo-irreversible inhibition of equine serum BuChE assessed as decarbamolyation-rate using butyrylthiocholine iodide as substrate preincubated with enzyme for 60 mins prior to substrate addition; format: cell-free
[16] = molecular target: T1, Cholinesterase; experiment: Pseudo-irreversible inhibition of equine serum BuChE assessed as binding affinity in an equilibrium state using butyrylthiocholine iodide as substrate preincubated with enzyme for 60 mins prior to substrate addition; format: cell-free
[17] = n-Octanol/PBS partition coefficient, logP of the compound incubated for 48 hrs at pH 7.4 by shake flask method; format: physicochemical
[18] = test system: PC-12; experiment: Neuroprotective activity against H2O2-induced cytotoxicity in rat PC-12 cells assessed as cell viability at 25 uM pretreated for 3 hrs followed by H2O2 stimulation and measured after 24 hrs by MTT assay (reference value: 38.7%); format: functional; settings: time 27 hrs, read-out: Activity
[19] = Cytotoxicity against human L02 cells assessed as cell viability at 50 uM incubated for 24 hrs by MTT assay; format: cell-based; settings: read-out: Activity
[20] = Cytotoxicity against human HepG2 cells assessed as cell viability at 25 uM incubated for 24 hrs by MTT assay; format: cell-based; settings: read-out: Activity
[21] = Permeability of the compound at 100 ug/ml incubated for 18 hrs by PAMPA; format: ADME; settings: dose 100 µg/ml, read-out: permeability

Sequence of Acetylcholinesterase (O42275 whole entry): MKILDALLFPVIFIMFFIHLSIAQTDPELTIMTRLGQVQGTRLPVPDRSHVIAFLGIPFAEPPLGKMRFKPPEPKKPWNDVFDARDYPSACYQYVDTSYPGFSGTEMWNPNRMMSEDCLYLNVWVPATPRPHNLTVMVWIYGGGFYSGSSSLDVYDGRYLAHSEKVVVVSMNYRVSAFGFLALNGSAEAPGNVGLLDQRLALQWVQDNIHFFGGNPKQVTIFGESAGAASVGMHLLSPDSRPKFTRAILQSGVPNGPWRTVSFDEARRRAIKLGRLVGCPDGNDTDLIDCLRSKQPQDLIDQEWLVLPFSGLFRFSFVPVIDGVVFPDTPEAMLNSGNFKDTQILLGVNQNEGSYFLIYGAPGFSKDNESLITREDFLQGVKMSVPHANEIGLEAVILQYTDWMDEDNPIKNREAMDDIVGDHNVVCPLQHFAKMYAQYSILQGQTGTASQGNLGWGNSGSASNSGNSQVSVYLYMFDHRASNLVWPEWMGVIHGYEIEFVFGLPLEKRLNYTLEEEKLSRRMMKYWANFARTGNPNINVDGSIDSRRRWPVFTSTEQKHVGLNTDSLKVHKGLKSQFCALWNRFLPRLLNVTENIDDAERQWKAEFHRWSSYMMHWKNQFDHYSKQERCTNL
Sequence of Cholinesterase (Equus caballus) (P81908 whole entry): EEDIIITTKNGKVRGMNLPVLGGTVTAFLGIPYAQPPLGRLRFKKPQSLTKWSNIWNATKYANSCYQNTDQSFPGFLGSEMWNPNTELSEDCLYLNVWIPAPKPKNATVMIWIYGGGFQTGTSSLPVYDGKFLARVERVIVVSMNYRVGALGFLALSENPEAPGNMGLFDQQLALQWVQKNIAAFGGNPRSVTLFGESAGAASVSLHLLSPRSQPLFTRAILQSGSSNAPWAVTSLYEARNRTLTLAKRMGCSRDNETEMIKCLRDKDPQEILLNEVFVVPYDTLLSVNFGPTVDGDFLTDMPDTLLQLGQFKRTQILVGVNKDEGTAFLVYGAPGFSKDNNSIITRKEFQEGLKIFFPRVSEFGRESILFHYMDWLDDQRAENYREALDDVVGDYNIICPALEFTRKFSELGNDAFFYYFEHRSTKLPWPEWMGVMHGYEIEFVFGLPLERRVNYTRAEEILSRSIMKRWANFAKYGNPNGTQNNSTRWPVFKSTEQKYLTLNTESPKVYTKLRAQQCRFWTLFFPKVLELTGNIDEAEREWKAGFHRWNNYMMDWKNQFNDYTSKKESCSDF
T1 sequence (P81908 whole entry): as above
Sequence of Acetylcholinesterase (Electrophorus electricus) (O42275 24-633 limits assumed): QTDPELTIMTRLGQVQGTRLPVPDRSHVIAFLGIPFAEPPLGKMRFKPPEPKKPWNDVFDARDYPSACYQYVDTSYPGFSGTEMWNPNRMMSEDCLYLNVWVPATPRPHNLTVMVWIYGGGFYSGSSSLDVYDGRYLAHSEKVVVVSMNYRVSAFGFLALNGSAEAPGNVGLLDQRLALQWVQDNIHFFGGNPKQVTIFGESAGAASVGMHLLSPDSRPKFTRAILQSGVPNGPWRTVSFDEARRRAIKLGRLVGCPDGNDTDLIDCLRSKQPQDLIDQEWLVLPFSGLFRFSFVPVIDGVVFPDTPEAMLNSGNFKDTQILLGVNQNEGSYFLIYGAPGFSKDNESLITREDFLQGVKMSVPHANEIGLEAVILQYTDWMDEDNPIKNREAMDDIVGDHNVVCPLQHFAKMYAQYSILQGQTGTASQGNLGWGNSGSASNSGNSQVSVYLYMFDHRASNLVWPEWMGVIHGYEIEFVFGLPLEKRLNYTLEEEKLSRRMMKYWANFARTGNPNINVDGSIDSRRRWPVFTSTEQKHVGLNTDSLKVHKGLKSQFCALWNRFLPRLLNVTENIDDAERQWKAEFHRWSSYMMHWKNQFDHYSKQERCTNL

Structure (SMILES) | inhibition [1] | IC50 [3] [nM] | IC50 [12] | also measured
O=C1O[C@H]([C@@H](O)CO)C(O)=C1O | 86.2% |  |  | 
C=C(C)[C@@H]1CCC(C)=C[C@H]1c1c(O)cc(CCCCC)cc1OC(=O)N(CC)CC | 40.4% | 370 |  | inhibition [2]: 28.4%
COc1cc2c(cc1OC)C(=O)C(CC1CCN(Cc3ccccc3)CC1)C2 (centres undefined) [DONEPEZIL] | 1.3% |  |  | Activity [4]: Active; Activity [5]: Active; Activity [6]: Active; Activity [7]: Active; Activity [8]: Active; viability at 24 h, 50 µM [9]: 91.1%; Activity [10]: Active; inhibition in vivo at 15 mg/kg [11]: 19%
C=C(C)[C@@H]1CCC(C)=C[C@H]1c1c(O)cc(CCCCC)cc1OC(=O)N(C)Cc1cccc(Cl)c1 | inactive | 2820 | Not Active | 
C=C(C)[C@@H]1CCC(C)=C[C@H]1c1c(O)cc(CCCCC)cc1OC(=O)N1CCOCC1 | 21.1% | 1890 | Not Active | 
C=C(C)[C@@H]1CCC(C)=C[C@H]1c1c(OC(=O)N2CCOCC2)cc(CCCCC)cc1OC(=O)N1CCOCC1 | 2% | 3360 | Not Active | 
C=C(C)[C@@H]1CCC(C)=C[C@H]1c1c(O)cc(CCCCC)cc1OC(=O)N1CCCC1 | 4.9% | 390 | Not Active | K [13]: 0.94 µM/min; K [14]: 0.33 min⁻¹; K [15]: 5.13 10^3/min; Kd [16]: 350 nM
C=C(C)[C@@H]1CCC(C)=C[C@H]1c1c(OC(=O)N2CCCC2)cc(CCCCC)cc1OC(=O)N1CCCC1 | 17.8% | 530 | Not Active | 
C=C(C)[C@@H]1CCC(C)=C[C@H]1c1c(OC(=O)N(C)CC)cc(CCCCC)cc1OC(=O)N(C)CC | 0.1% | 290 | Not Active | logD at 48 h [17]: 2.57
C=C(C)[C@@H]1CCC(C)=C[C@H]1c1c(O)cc(CCCCC)cc1O [CANNABIDIOL] | 66.7% | 670 |  | viability at 25 µM [18]: 17.9%; viability at 24 h, 50 µM [19]: 92.6%; viability at 24 h, 25 µM [20]: 20.1%; IC50 ([12]; read-out: IC50): 17100 nM; Papp at 18 h, 100 ug/ml [21]: 22.7 ×10⁻⁶ cm/s; logD at 48 h [17]: 1.67
